Experiment in all cases: microbe, parasite or virus in culture
Holding throughout (settings): across three biological replicates

The test system of assay [1] is K. pneumoniae ATCC 10031 (SEN) and K. pneumoniae ATCC 700603 (MDR). It counts as cell-based, Klebsiella pneumoniae. On the procedure:
(§1) This study focused on multiple bacterial strains, as follows. For the FoR and ALE experiments, 2 strains per species were chosen: E. coli ATCC 25922, K. pneumoniae ATCC 10031, A. baumannii ATCC 17978, and P. aeruginosa ATCC BAA-3107 as sensitive (SEN) strains, and E. coli NCTC13846, K. pneumoniae ATCC 700603, A. baumannii ATCC BAA-1605 and P. aeruginosa LESB58 as multi-drug resistant (MDR) strains. Functional metagenomic screens were performed with E. coli ATCC 25922 and K. pneumoniae ATCC 10031 strains. To determine the dose-kill properties of the different antibiotics, an E. coli strain (ATCC 25922) expressing a yellow fluorescent protein (pZS2R, YFP, CHL^R) and a red fluorescent protein (pZS2R, mCherry, CHL^R) was used.
(§2) Unless otherwise indicated, cation-adjusted Mueller-Hinton Broth 2 (MHB, Millipore) medium was used throughout the study, except for SCH79797 (SCH).
(§3) A robotic liquid handling system was used to automatically prepare a 11 to 16-step serial dilution in 384-well microtiter plates (Greiner). A final concentration of 5 × 10^5 bacterial cells per mL were inoculated into each well containing 60 µL MHB medium. Bacterial cultures were incubated at 37 °C with continuous shaking (Infors shaker, 900 rpm with 3 mm throw) for 18 hours (2 replicates from each). Cell growth was monitored by measuring the optical density (OD600 values, using Biotek Synergy microplate reader). MIC was defined as the antibiotic concentration of complete growth inhibition (i.e., OD600 < 0.05). Relative MIC was calculated as follows:1 relativeMIC=MICevolved/MICancestor

Assay [2] deals with E. coli ATCC 25922 (SEN) and E. coli NCTC13846 (MDR). It counts as cell-based, Escherichia coli. As to the method:
as §1, §2, §3

Assay [3] has as its system P. aeruginosa ATCC BAA-3107 (SEN) and P. aeruginosa LESB58 (MDR). The format is cell-based, Pseudomonas aeruginosa. On the procedure: as §1, §2, §3
For assay [4], the system named is A. baumannii ATCC 17978 (SEN) and A. baumannii ATCC BAA-1605 (MDR). The format is cell-based, Acinetobacter baumannii. As to the method: as §1, §2, §3
Where [5] appears, read: Klebsiella pneumoniae ATCC 10031 (KP-SEN).
[6] abbreviates: Klebsiella pneumoniae ATCC 700603 (KP-MDR).
Where [7] appears, read: Escherichia coli ATCC 25922 (EC-SEN).
The mark [8] stands for this setting: Escherichia coli NCTC 13846 (EC-MDR).
Where [9] appears, read: Pseudomonas aeruginosa ATCC BAA-3107 (PA-SEN).
Where [10] appears, read: Pseudomonas aeruginosa LESB 58 (PA-MDR).
The mark [11] stands for this setting: Acinetobacter baumannii ATCC 17978 (AB-SEN).
The mark [12] stands for this setting: Acinetobacter baumannii ATCC BAA-1605 (AB-MDR).

Where a SMILES comes first, the peptide text is derived from it. Bridges are numbered along the chain shown (N, C = ends). [ ]: non-standard residue; d: D form. The star is where a group is joined. X2 = CC[C@H](C)CCCCC(=O)*; Dab = NCC[C@H](N)C(=O)O

As for `CC[C@H](C)CCCCC(=O)N[C@@H](CCN)C(=O)N[C@H](C(=O)N[C@@H](CCN)C(=O)N[C@H]1CCNC(=O)[C@H]([C@@H](C)O)NC(=O)[C@H](CCN)NC(=O)[C@H](CCN)NC(=O)[C@H](CC(C)C)NC(=O)[C@@H](Cc2ccccc2)NC(=O)[C@H](CCN)NC1=O)[C@@H](C)O` [Polymyxin B] (X2-[Dab]T[Dab][Dab][Dab][dF]L[Dab][Dab]T; lactam 4-C (inferred); N-terminus assumed), the MIC was determined as 2 µg/mL in assay [1] (setting [5]); 1 µg/mL in assay [1] (setting [6]); 1 µg/mL in assay [2] (setting [7]); 4 µg/mL in assay [2] (setting [8]); 1 µg/mL in assay [3] (setting [9]); 2 µg/mL in assay [3] (setting [10]). The MIC in assay [4] (setting [11]) and in assay [4] (setting [12]) was 1 µg/mL in each case.

For the compound POL7306, the MIC in assay [1] (setting [5]) was 1 µg/mL; in assay [1] (setting [6]), 1 µg/mL; in assay [2] (setting [7]), 1 µg/mL; in assay [2] (setting [8]) it was 4 µg/mL; in assay [3] (setting [9]), 2 µg/mL; in assay [3] (setting [10]), 8 µg/mL. Besides, the MIC in assay [4] (setting [11]) and in assay [4] (setting [12]) was 1 µg/mL throughout.

The record behind these values is paper PMC11845477, “Exploring the principles behind antibiotics with limited resistance” (Nature Communications, 2025).
